Among the data in PubChem BioAssay (NCI) are GI50 and TGI values, retold here.

Among the test systems are A549 NSCLC; CCRF-CEM leukemia; COLO 205 colon; HOP-62 NSCLC; IGROV1 ovarian; MCF7 breast; NCI-H226 lung; NCI-H23 lung; PC-3 prostate; UACC-257 melanoma.
Common to all, as to assay: NCI anticancer screen, dose series, 48 h

Several values for one entry are separate records, joined by “and”; a condition that tells them apart may be missing. Identical values can stand only once.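 Where inhibition never reached the appropriate level, the endpoint shown equals the highest concentration tested. Otherwise, values were interpolated linearly from a five-concentration, 48-hour dose response in 96-well plates. Here, GI50 denotes the concentration required for 50% inhibition of growth. The concentration for full growth arrest is given as TGI.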

As to `O=C(NCCNc1nccc(-c2c(-c3ccc(F)cc3)nc3sccn23)n1)c1ccccc1`, the GI50 was 4.11 µM in the assay on A549 NSCLC; 3.83 µM in the assay on CCRF-CEM leukemia; 1.84 µM in the assay with COLO 205 colon; 16.9 µM in the assay on HOP-62 NSCLC; 3.48 µM with IGROV1 ovarian; 1.43 µM with MCF7 breast. In addition, the GI50 in the assay on NCI-H226 lung was 5.87 µM; in the assay on NCI-H23 lung, 10.9 µM; in the assay on PC-3 prostate, 10.8 µM; in the assay on UACC-257 melanoma, 14.3 µM. For the same molecule, the TGI in the assay with A549 NSCLC is 96.7 µM; in the assay on CCRF-CEM leukemia, 36.3 µM; with COLO 205 colon it was 14.6 µM; in the assay with HOP-62 NSCLC, 34.7 µM; with IGROV1 ovarian, 24.1 µM; in the assay with MCF7 breast it was 17.3 µM. Also, the TGI with NCI-H226 lung came to 25 µM; in the assay on NCI-H23 lung, 45.1 µM; in the assay with PC-3 prostate it was 89.2 µM; with UACC-257 melanoma, 41.1 µM.

In the case of `O=C1CCC(N2Cc3c(C#CCCCNC(=O)c4cc5c(o4)C(=O)c4ccccc4C5=O)cccc3C2=O)C(=O)N1` (stereo not given), the GI50 was 12.6 µM in the assay on A549 NSCLC; 4.42 µM with CCRF-CEM leukemia; 2.3 µM in the assay on COLO 205 colon; 2.89 µM in the assay with HOP-62 NSCLC; 4.03 µM with IGROV1 ovarian; 1.63 µM in the assay on MCF7 breast. The GI50 is 12.5 µM in the assay on NCI-H226 lung, 1.58 µM in the assay with NCI-H23 lung, 2.95 µM with PC-3 prostate and 2 µM in the assay on UACC-257 melanoma. Also, the TGI in the assay on A549 NSCLC is 32.9 µM; with CCRF-CEM leukemia it was 55.4 µM; in the assay with COLO 205 colon, 6.01 µM; in the assay on HOP-62 NSCLC it was 9.32 µM; with IGROV1 ovarian, 17.2 µM; in the assay with MCF7 breast, 3.73 µM. Also, the TGI in the assay on NCI-H226 lung came to 30.2 µM; in the assay with NCI-H23 lung it was 4.44 µM; with PC-3 prostate it was 56.2 µM; in the assay on UACC-257 melanoma it was 4.48 µM.

For `Nc1ccc(-c2nc3ccccc3o2)cc1S`, the GI50 in the assay on A549 NSCLC is 14.3 µM; with CCRF-CEM leukemia, 14 µM; in the assay with COLO 205 colon it was 27.5 µM; in the assay with HOP-62 NSCLC, 14.5 µM; with IGROV1 ovarian it was 19.7 µM; in the assay on MCF7 breast, 12.1 µM. In addition, the GI50 in the assay with NCI-H226 lung is 11.8 µM; in the assay with NCI-H23 lung, 14.5 µM; with PC-3 prostate it was 6.96 µM; in the assay on UACC-257 melanoma it was 23.1 µM. Besides, the TGI is 41.5 µM in the assay on A549 NSCLC; 43.3 µM with CCRF-CEM leukemia; more than 100 µM in the assay with COLO 205 colon; 27.7 µM in the assay on HOP-62 NSCLC; more than 100 µM in the assay on IGROV1 ovarian; 38.3 µM in the assay with MCF7 breast. Also, the TGI with NCI-H226 lung turned out to be 30.4 µM; in the assay on NCI-H23 lung, 35.6 µM; in the assay with PC-3 prostate, 22.5 µM; in the assay with UACC-257 melanoma, 59.8 µM.

As for `S=C(c1ccc2c(c1)OCO2)N1CCN(c2cccc(Cl)c2)CC1`, the GI50 in the assay on A549 NSCLC was 0.872 µM; in the assay with CCRF-CEM leukemia, 1.01 µM; with COLO 205 colon it was 0.706 µM; in the assay with HOP-62 NSCLC, 3.27 µM; in the assay on IGROV1 ovarian, 3.88 µM; with MCF7 breast, 0.471 µM. Also, the GI50 was 14 µM in the assay with NCI-H226 lung, 2.7 µM in the assay with NCI-H23 lung and 4.08 µM in the assay with PC-3 prostate. Besides, the TGI was more than 40.2 µM in the assay on A549 NSCLC; more than 21.9 µM with CCRF-CEM leukemia; more than 59.2 µM in the assay on HOP-62 NSCLC; more than 100 µM in the assay with IGROV1 ovarian; more than 100 µM with MCF7 breast; more than 100 µM in the assay with NCI-H226 lung. The TGI in the assay with NCI-H23 lung was more than 100 µM; in the assay with PC-3 prostate, more than 100 µM; in the assay with UACC-257 melanoma it was more than 21.2 µM.

`O=C1c2cc([N+](=O)[O-])cc3cc([N+](=O)[O-])cc(c23)C(=O)N1CCCNCCNCCCN1C(=O)c2cc([N+](=O)[O-])cc3cc([N+](=O)[O-])cc(c23)C1=O`: the TGI in the assay on A549 NSCLC was 3.6 µM; in the assay with CCRF-CEM leukemia, 6.46 µM; with COLO 205 colon, 0.849 µM; with HOP-62 NSCLC it was 3.07 µM; in the assay on IGROV1 ovarian it was 1.74 µM; in the assay with MCF7 breast, 11.7 µM. Also, the TGI with NCI-H226 lung was 2.57 µM; in the assay with NCI-H23 lung, 2.41 µM; in the assay with PC-3 prostate, 7.87 µM; in the assay with UACC-257 melanoma, 2.52 µM.

On to `CC(C)NC(=O)OCc1c(COC(=O)NC(C)C)c(-c2ccc(Cl)c(Cl)c2)n2c1CCC2`, for which the TGI in the assay with A549 NSCLC was 29.6 µM; in the assay with CCRF-CEM leukemia, 44.6 µM; with COLO 205 colon, 71.3 µM; in the assay on HOP-62 NSCLC, 62 µM; in the assay with IGROV1 ovarian, 70.6 µM; with MCF7 breast, more than 100 µM. Further, the TGI in the assay on NCI-H226 lung was 47.4 µM; in the assay with NCI-H23 lung it was 60.9 µM; in the assay on PC-3 prostate it was more than 100 µM; with UACC-257 melanoma, 65.9 µM.

Turning to `O=C(O)c1ccccc1-c1ccccc1C(=O)Nc1ccc2c(c1)[nH]c(=O)c1ccccc12`, the TGI in the assay with A549 NSCLC, in the assay on CCRF-CEM leukemia, with COLO 205 colon, in the assay with HOP-62 NSCLC, in the assay with IGROV1 ovarian and in the assay on MCF7 breast was more than 100 µM in each case. Also, the TGI with NCI-H226 lung, in the assay with NCI-H23 lung, in the assay with PC-3 prostate and in the assay with UACC-257 melanoma was more than 100 µM throughout.

For `OCC1OC(n2cnc3c2NC=NC[C@H]3O)CC1O` (stereo not given in full), the GI50 was 412 µM and > 588 µM in the assay on A549 NSCLC; more than 588 µM in the assay with CCRF-CEM leukemia; more than 588 µM in the assay on COLO 205 colon; more than 588 µM with HOP-62 NSCLC; more than 588 µM in the assay on IGROV1 ovarian; more than 588 µM in the assay with NCI-H226 lung. Further, the GI50 with NCI-H23 lung was more than 588 µM. Further, the TGI is 461 µM and > 588 µM in the assay with A549 NSCLC; 492 µM and > 588 µM in the assay on CCRF-CEM leukemia; 500 µM and > 588 µM with COLO 205 colon; 471 µM and > 588 µM in the assay on HOP-62 NSCLC; 500 µM and > 588 µM with IGROV1 ovarian; 500 µM in the assay with MCF7 breast. Further, the TGI in the assay on NCI-H226 lung is 500 µM and > 588 µM; in the assay with NCI-H23 lung, 500 µM and > 588 µM; in the assay on PC-3 prostate it was more than 500 µM; in the assay with UACC-257 melanoma, 468 µM.
